Read-outs that look alike come from different tables or passages of the source.
Columns and labels:
cyclin D1/cdk 4 enzyme = target: T1, cyclin D1/cdk 4 enzyme (Homo sapiens, UniProt P11802); experiment: CDK4 ELISA kinase assay (phospho-Rb ser 795 detection); type: biochemical
T1 construct: made in house; host or cells: Sf9 insect cells, recombinant baculovirus
How it was run: (§1)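 Screening was done at 10 ug/ml compound. Each partially purified cyclin/CDK complex, produced in baculovirus-infected Sf9 cells, phosphorylated a coated GST-Rb C-terminal fragment with 200 μM ATP, and Ser795 phosphorylation was quantified by HRP-ELISA at 450 nm.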

cyclin E/CDK2 enzyme = target: T2, cyclin E/CDK2 enzyme (Homo sapiens, UniProt P24941); experiment: CDK2 ELISA kinase assay (phospho-Rb ser 795 detection); type: biochemical
T2 construct: made in house; host or cells: Sf9 insect cells, recombinant baculovirus
How it was run: as §1

cyclin B/CDK1 enzyme = target: T3, cyclin B/CDK1 enzyme (Homo sapiens, UniProt P06493); experiment: CDK1 ELISA kinase assay (phospho-Rb ser 795 detection); type: biochemical
T3 construct: purchased New England BioLabs; host or cells: Sf9 insect cells, recombinant baculovirus
T3 sequence (P06493 whole entry): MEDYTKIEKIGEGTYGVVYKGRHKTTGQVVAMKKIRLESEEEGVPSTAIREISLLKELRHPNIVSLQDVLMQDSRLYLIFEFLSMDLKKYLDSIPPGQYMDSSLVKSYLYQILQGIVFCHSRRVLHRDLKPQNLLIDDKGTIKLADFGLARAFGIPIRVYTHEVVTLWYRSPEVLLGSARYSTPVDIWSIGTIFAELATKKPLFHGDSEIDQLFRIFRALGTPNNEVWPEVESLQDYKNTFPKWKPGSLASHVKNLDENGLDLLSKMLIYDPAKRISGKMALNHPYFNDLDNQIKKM
T3 sequence (P14635 whole entry partner): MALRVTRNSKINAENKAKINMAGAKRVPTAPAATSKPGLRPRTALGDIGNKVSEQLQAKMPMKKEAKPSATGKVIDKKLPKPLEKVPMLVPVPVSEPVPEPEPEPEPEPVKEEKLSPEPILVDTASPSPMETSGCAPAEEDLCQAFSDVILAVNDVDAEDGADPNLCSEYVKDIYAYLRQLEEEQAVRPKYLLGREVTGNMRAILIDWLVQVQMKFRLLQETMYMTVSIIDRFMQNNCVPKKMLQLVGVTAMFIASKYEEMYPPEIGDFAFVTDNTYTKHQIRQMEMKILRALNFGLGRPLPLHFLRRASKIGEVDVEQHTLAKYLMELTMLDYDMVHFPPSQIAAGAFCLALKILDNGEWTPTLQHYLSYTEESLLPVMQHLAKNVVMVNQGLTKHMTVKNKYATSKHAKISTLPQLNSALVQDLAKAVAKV
How it was run: as §1

BT474 = experiment: Cytotoxicity assay (SRB), BT474; type: cell-based
How it was run: (§2)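 Plate cells, let them attach overnight, add compound dilutions in RPMI 1640/5% FBS, and incubate 3 days (BT474 6 days). Then fix with TCA, stain with SRB, dissolve the dye in Tris and read at 540 nm.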

HCT-116 = experiment: Cytotoxicity assay (SRB), HCT-116; type: cell-based; details: HCT116 cells, SRB, read-out: In Vitro Cellular Activity IC50 HCT116
How it was run: as §2

LoVo = experiment: Cytotoxicity assay (SRB), LoVo; type: cell-based; details: LoVo cells, SRB, read-out: In Vitro Cellular Activity IC50 LOVO
How it was run: as §2

MCF-7 = experiment: Cytotoxicity assay (SRB), MCF-7; type: cell-based; details: MCF-7 cells, SRB, read-out: In Vitro Cellular Activity IC50 MCF-7
How it was run: as §2

[1] = In Vitro Enzyme Assays, 200 μM ATP, read-out: CDK4 IC50
[2] = In Vitro Enzyme Assays, read-out: CDK2 IC50
[3] = In Vitro Enzyme Assays, read-out: CDK1 IC50
[4] = Homo sapiens, BT-474, 144 h, BT474 cells, SRB, 6 days; read-out: In Vitro Cellular Activity IC50 BT474
[5] = Homo sapiens, HCT-116, 72 h, three days
[6] = Homo sapiens, LoVo, 72 h, three days
[7] = Homo sapiens, MCF7, 72 h, three days
[8] = In Vitro Enzyme Assay, cyclin D1/cdk 4, read-out: CDK4 IC50
[9] = In Vitro Enzyme Assay, cyclin E/CDK2, read-out: CDK2 IC50
[10] = In Vitro Enzyme Assay, cyclin B/CDK1, read-out: CDK1 IC50
[11] = Homo sapiens, BT-474, 144 h, BT474 cells, 6 days, SRB; read-out: In Vitro Cellular Activity IC50 BT474
[12] = Homo sapiens, HCT-116, 72 h, 3 days
[13] = Homo sapiens, LoVo, 72 h, 3 days
[14] = Homo sapiens, MCF7, 72 h, 3 days

T1 sequence (P11802 whole entry, species assumed): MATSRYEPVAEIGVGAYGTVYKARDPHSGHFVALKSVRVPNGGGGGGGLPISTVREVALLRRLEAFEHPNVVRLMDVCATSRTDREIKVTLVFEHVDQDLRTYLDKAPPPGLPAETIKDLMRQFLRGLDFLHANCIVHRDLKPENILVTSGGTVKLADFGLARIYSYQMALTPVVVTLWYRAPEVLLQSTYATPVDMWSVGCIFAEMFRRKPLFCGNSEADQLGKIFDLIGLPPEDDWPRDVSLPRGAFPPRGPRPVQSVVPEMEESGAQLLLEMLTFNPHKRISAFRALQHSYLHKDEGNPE
T1 sequence (P24385 whole entry partner, species assumed): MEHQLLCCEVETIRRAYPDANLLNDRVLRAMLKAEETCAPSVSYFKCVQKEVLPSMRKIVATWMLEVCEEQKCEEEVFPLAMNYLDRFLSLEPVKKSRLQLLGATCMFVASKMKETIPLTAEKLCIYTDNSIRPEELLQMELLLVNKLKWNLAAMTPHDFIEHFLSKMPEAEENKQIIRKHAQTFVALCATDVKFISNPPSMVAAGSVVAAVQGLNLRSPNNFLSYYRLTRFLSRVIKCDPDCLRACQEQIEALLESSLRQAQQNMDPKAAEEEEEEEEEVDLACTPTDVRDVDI

| IC50 (cyclin D1/cdk 4 enzyme; [1]) [µM] | IC50 (cyclin E/CDK2 enzyme; [2]) [µM] | IC50 (cyclin B/CDK1 enzyme; [3]) [µM] | IC50 (cyclin D1/cdk 4 enzyme; [8]) [µM] | IC50 (cyclin E/CDK2 enzyme; [9]) [µM] | IC50 (cyclin B/CDK1 enzyme; [10]) [µM] | Structure (SMILES) | IC50 (BT474; [4]) [µM] | IC50 (HCT-116; [5]) [µM] | IC50 (LoVo; [6]) [µM] | IC50 (MCF-7; [7]) [µM] | IC50 (BT474; [11]) [µM] | IC50 (HCT-116; [12]) [µM] | IC50 (LoVo; [13]) [µM] | IC50 (MCF-7; [14]) [µM] | further results |
| --- | --- | --- | --- | --- | --- | --- | --- | --- | --- | --- | --- | --- | --- | --- | --- |
| – | – | – | 0.3 | > 50 | > 50 | CCCCc1ccc(CN/C=C2\C(=O)NC(=O)c3ccc(I)cc32)cc1O [Example 495, 4-[(4-Butyl-3-hydroxy-benzylamino)-methylene]-6-iodo-4H-isoquinoline-1,3-dione] | – | – | – | – | 4.5 | 4.9 | 6.3 | 3.3 | – |
| – | – | – | 0.81 | 13.5 | 18 | NS(=O)(=O)c1ccc(CNC=C2C(=O)NC(=O)c3ccc(-c4ccc5[nH]ccc5c4)cc32)cc1 [Example 637, 4-({[6-(1H-Indol-5-yl)-1,3-dioxo-2,3-dihydro-1H-isoquinolin-4-ylidenemethyl]-amino}-methyl)-benzenesulfonamide] | – | – | – | – | 29.2 | > 50 | > 50 | 22.7 | – |
| – | – | – | 1.51 | > 50 | > 50 | CN1CCN(c2ccc(NC=C3C(=O)NC(=O)c4ccc(-c5ccc(C(=O)O)cc5)cc43)cc2)CC1 [Example 685, 4-(4-{[4-(4-Methyl-piperazin-1-yl)-phenylamino]-methylene}-1,3-dioxo-1,2,3,4-tetrahydro-isoquinolin-6-yl)-benzoic acid] | – | – | – | – | 36.9 | 18.4 | 25 | 22.1 | – |
| – | – | – | 2 | 38 | 11.8 | CN1CCN(c2ccc(NC=C3C(=O)NC(=O)c4ccc(-c5ccc6[nH]ccc6c5)cc43)cc2)CC1 [Example 671, 6-(1H-Indol-5-yl)-4-{[4-(4-methyl-piperazin-1-yl)-phenylamino]-methylene}-4H-isoquinoline-1,3-dione] | – | – | – | – | 2.8 | 2.3 | 4.1 | 4.4 | – |
| – | – | – | 0.67 | 3.8 | 23.1 | O=C1NC(=O)c2ccc(-c3ccccc3Cl)cc2C1=CNCc1ccc(O)c(O)c1 [Example 780, 6-(2-Chloro-phenyl)-4-[(3,4-dihydroxy-benzylamino)-methylene]-4H-isoquinoline-1,3-dione] | – | – | – | – | 17.7 | 14.4 | 18.2 | 18.9 | – |
| 0.09 | 8.4 | > 50 | – | – | – | C=CC(=O)Nc1ccc(CN/C=C2\C(=O)NC(=O)c3ccc(Br)cc32)cc1O [Example 301, N-[4-({[(Z)-(6-Bromo-1,3-dioxo-2,3-dihydroisoquinolin-4(1H)-ylidene)methyl]amino}methyl)-2-hydroxyphenyl]acrylamide] | 0.14 | 0.17 | 0.17 | 0.2 | – | – | – | – | – |
| – | – | – | 0.38 | 2.5 | 3.5 | O=C1NC(=O)c2ccc(N3Cc4ccccc4C3)cc2C1=CNCc1ccc(O)c(O)c1 [Example 610, 6-(1,3-Dihydro-isoindol-2-yl)-4-[(3,4-dihydroxy-benzylamino)-methylene]-4H-isoquinoline-1,3-dione] | – | – | – | – | 27 | 9.9 | 11.1 | 12.2 | – |
| 0.033 | > 50 | > 50 | – | – | – | O=C1NC(=O)c2ccc(Br)cc2/C1=C/NCc1cccc(O)c1 [Example 46] | > 50 | 23 | 23 | > 50 | – | – | – | – | – |

The next lines start with the compound.

| Structure (SMILES) | IC50 (cyclin D1/cdk 4 enzyme; [1]) [µM] | IC50 (cyclin E/CDK2 enzyme; [2]) [µM] | IC50 (cyclin B/CDK1 enzyme; [3]) [µM] | IC50 (cyclin D1/cdk 4 enzyme; [8]) [µM] | IC50 (cyclin E/CDK2 enzyme; [9]) [µM] | IC50 (cyclin B/CDK1 enzyme; [10]) [µM] | IC50 (BT474; [4]) [µM] | IC50 (HCT-116; [5]) [µM] | IC50 (LoVo; [6]) [µM] | IC50 (MCF-7; [7]) [µM] | IC50 (BT474; [11]) [µM] | IC50 (HCT-116; [12]) [µM] | IC50 (LoVo; [13]) [µM] | IC50 (MCF-7; [14]) [µM] | further results |
| --- | --- | --- | --- | --- | --- | --- | --- | --- | --- | --- | --- | --- | --- | --- | --- |
| CN1CCCC1c1ccc(NC=C2C(=O)NC(=O)c3ccc(I)cc32)cc1 (stereo not drawn) [Example 361, 6-Iodo-4-{[4-(1-methyl-pyrrolidin-2-yl)-phenylamino]-methylene}-4H-isoquinoline-1,3-dione] | 0.22 | 17.9 | 45.5 | – | – | – | 0.86 | 3.8 | 5.9 | 2.6 | – | – | – | – | – |
| CN1CCN(c2ccc(N/C=C3\C(=O)NC(=O)c4ccc(-c5ccsc5)cc43)cc2)CC1 [Example 108, (4Z)-4-({[4-(4-Methylpiperazin-1-yl)phenyl]amino}methylene)-6-thien-3-ylisoquinoline-1,3(2H,4H)-dione] | 0.12 | > 50 | > 50 | – | – | – | – | – | – | – | – | – | – | – | IC50 (BT474; BT474 cells, SRB, 6 days; read-out: In Vitro Cellular Activity IC50 BT474): 2.6 µM; IC50 (HCT-116; three days): 1.5 µM; IC50 (LoVo; three days): 2.2 µM; IC50 (MCF-7; three days): 2.5 µM |
| CN(C)CC1CCN(c2ccc(N/C=C3\C(=O)NC(=O)c4ccc(I)cc43)cc2)CC1 [Example 454, (4Z)-4-{[(4-{4-[(Dimethylamino)methyl]piperidin-1-yl}phenyl)amino]methylene}-6-iodoisoquinoline-1,3(2H,4H)-dione] | 0.36 | > 50 | > 50 | – | – | – | – | – | – | – | 10.5 | 7.4 | 10.5 | 11.5 | – |
| COc1ccc(CNC=C2C(=O)NC(=O)c3ccc(C=Cn4ccnc4)cc32)cc1O [Example 734, 4-[(3-Hydroxy-4-methoxy-benzylamino)-methylene]-6-(2-imidazol-1-yl-vinyl)-4H-isoquinoline-1,3-dione] | – | – | – | < 0.005 | 5 | 20.2 | – | – | – | – | 9.9 | 11.9 | 2.5 | 6.7 | – |
| O=C1NC(=O)c2ccc(I)cc2/C1=C/Nc1ccc(N2CCN(CC3CC3)CC2)nc1 [Example 415, (4Z)-4-[({6-[4-(Cyclopropylmethyl)piperazin-1-yl]pyridin-3-yl}amino)methylene]-6-iodoisoquinoline-1,3(2H,4H)-dione] | 1.5 | > 50 | > 50 | – | – | – | – | – | – | – | 2.9 | 1.2 | 2 | 3.6 | – |
| CCCOc1cc(CN/C=C2\C(=O)NC(=O)c3ccc(Br)cc32)cc(O)c1OCCC [Example 212, (4Z)-6-Bromo-4-{[(3-hydroxy-4,5-dipropoxybenzyl)amino]methylene}isoquinoline-1,3(2H,4H)-dione] | 0.77 | > 50 | > 50 | – | – | – | 47 | 25 | 30 | 37 | – | – | – | – | – |
| CN(C)CCSc1ccc(N/C=C2\C(=O)NC(=O)c3ccc(Br)cc32)cc1 [Example 229, (4Z)-6-Bromo-4-{[(4-{[2-(dimethylamino)ethyl]thio}phenyl)amino]methylene}isoquinoline-1,3(2H,4H)-dione] | 0.24 | > 50 | > 50 | – | – | – | 4 | 3.6 | 8.5 | 4.6 | – | – | – | – | – |
| CN(C)CCCc1ccc(N/C=C2\C(=O)NC(=O)c3ccc(Br)cc32)cc1 [Example 874, (4Z)-6-Bromo-4-[({4-[3-(dimethylamino)propyl]phenyl}amino)methylene]isoquinoline-1,3(2H,4H)-dione] | – | – | – | – | – | – | – | – | – | – | 27.4 | 12.6 | 23.7 | 7.2 | IC50 (cyclin D1/cdk 4 enzyme; In Vitro Enzyme Assay, read-out: CDK4 IC50): 3 µM; IC50 (cyclin E/CDK2 enzyme; In Vitro Enzyme Assay, read-out: CDK2 IC50): 38.8 µM; IC50 (cyclin B/CDK1 enzyme; In Vitro Enzyme Assay, read-out: CDK1 IC50): > 50 µM |
| CN1CCC(N2CCN(c3ccc(N/C=C4\C(=O)NC(=O)c5ccc(I)cc54)cc3)CC2)CC1 [Example 387, (4Z)-6-Iodo-4-[({4-[4-(1-methylpiperidin-4-yl)piperazin-1-yl]phenyl}amino)methylene]isoquinoline-1,3(2H,4H)-dione] | 0.9 | > 50 | > 50 | – | – | – | 25 | 7.7 | 33 | 24 | – | – | – | – | – |
| O=C1NC(=O)c2ccc(I)cc2/C1=C/Nc1ccc(N2CCNCC2)cc1 [Example 378, (4Z)-6-Iodo-4-{[(4-piperazin-1-ylphenyl)amino]methylene}isoquinoline-1,3(2H,4H)-dione] | 0.65 | 15.4 | 20.4 | – | – | – | 2.9 | 1.5 | 2.6 | 1.1 | – | – | – | – | – |

— US7713994B2 (Wyeth LLC, priority 2005, dated 2010)
